Columns and labels:
Assay type in all cases: in vivo, human
[1] = tested on: adult subjects with schizophrenia; test: Calgary Depression Scale for Schizophrenia (CDSS), Clinical Study Three; settings: LOCF; for Change from Baseline in CDSS Total Score, Median / Change from Baseline in CDSS Total Score, Mean (SD): 15 mg
From the text: SECONDARY OBJECTIVES To assess the efficacy of bifeprunox in treating schizophrenia using the Positive Symptom sub-scale score of the PANSS, the Negative Symptom sub-scale score of the PANSS, the General Psychopathology sub-scale of the PANSS, Brief Psychiatric Rating Scale (BPRS) total score derived from the PANSS, BPRS psychosis score derived from the PANSS, the Clinical Global Impression Severity of Illness score (CGI-S), the Clinical Global Impression Improvement score (CGI-I), CGI-I responder rate, PANSS responder rate based on the PANSS total score, Calgary Depression Scale for Schizophrenia (CDSS), and Subject Satisfaction rating.
There were four treatment arms in this study, approximately 144 subjects per arm. […] After completing the Single-Blind Placebo Lead-in Period of at least three days, bifeprunox-treated subjects were titrated from 0.25 mg up to 20 mg/day or 30 mg/day according to a standardized titration scheme over a seven- or eight-day period, respectively. When the assigned dose was reached, subjects were maintained at that dose for the remainder of the six week treatment period. […] Subjects were hospitalized (if not already inpatients) after eligibility for study entry was verified, starting from the Screening Visit until at least 10 days after Baseline. Subjects could be hospitalized longer than 10 days if considered medically necessary by the Investigator. Rating scale assessments for efficacy and abnormal movement disorders were done weekly except for Week 5. […] Subject satisfaction with study medication was assessed at Week 6.

[2] = tested on: adult subjects with schizophrenia; test: PANSS negative symptom subscale score, Clinical Study Two; settings: Risperidone 6 mg, LOCF, ITT
Experimental: Rating scale assessments were performed weekly, except for week 5, to measure the change from baseline to endpoint of the PANSS total score. Other assessments included: PANSS positive symptom subscale score, PANSS negative symptom subscale score, PANSS general pschopathology subscale score, BPRS total score, BPRS psychosis score, the CGI-S score, the CGI-I score, responder rates based on the PANSS total score, and the Calgary Depression Scale for Schizophrenia (CDSS). […]
Subjects who completed this study had the option to continue in the long-term. […] Risperidone-treated subjects were titrated from 2 mg to 6 mg daily over a three-day period and were subsequently maintained at 6 mg/day for the remainder of the treatment period. […] Blood samples were also obtained at Screening/Baseline, Week 3, and Week 6 for clinical laboratory assessments.

[3] = tested on: adult subjects with schizophrenia; test: CGI Improvement score, Clinical Study One; settings: 6 mg
Experimental: There were five treatment groups in this study. […] Study medication was administered once daily. After Baseline measurements were performed, the titration phase was begun. Bifeprunox treated subjects were titrated up to 5 mg, 10 mg or 20 mg according to a standardized titration schedule (Day 1: 0.125 mg, Day 2: 0.25 mg, Day 3: 0.5 mg, Day 4: 1.0 mg, Day 5: 2.0 mg, Day 6: 5.0 mg, Day 7: 10.0 mg, Day 8: 20 mg). When the assigned dose was reached, subjects were maintained at that dose for the remainder of the six-week treatment period.
The change in the Positive and Negative Symptom Scale (PANSS) total score, from baseline to endpoint, was the primary outcome measure. Secondary efficacy measures included: PANSS positive, PANSS negative, PANSS general psychopathology (GPP) score, PANSS-derived Brief Psychiatric Rating Scale (BPRS) score, Clinical Global Impressions-Severity of Illness (CGI-S), CGI-Improvement (CGI-I) scores, and responder rates. Safety and tolerability evaluations included extrapyramidal symptoms (EPS), weight gain, lipid profile, and serum prolactin.

[4] = tested on: adult subjects with schizophrenia; test: PANSS total score, Clinical Study Two (6-week, risperidone-referenced); settings: Risperidone 6 mg, LOCF, ITT
Experimental: Treatment started with a single-blind placebo lead-in period of at least three days, followed by titration from 0.25 mg up to 30 mg/day or 40 mg/day of bifeprunox for bifeprunox-treated subjects.
Rating scale assessments were performed weekly, except for week 5, to measure the change from baseline to endpoint of the PANSS total score. Other assessments included: PANSS positive symptom subscale score, PANSS negative symptom subscale score, PANSS general pschopathology subscale score, BPRS total score, BPRS psychosis score, the CGI-S score, the CGI-I score, responder rates based on the PANSS total score, and the Calgary Depression Scale for Schizophrenia (CDSS).
Subjects who completed this study had the option to continue in the long-term. […] After completing a Single-Blind placebo lead-in period of at least three days, bifeprunox-treated subjects were titrated from 0.25 mg up to 30 mg/day or 40 mg/day according to a standardized titration scheme over an eight-day period. When the assigned dose was reached, subjects were maintained at that dose for the remainder of the six week treatment period. […] Rating scale assessments for efficacy and abnormal movement disorders were done weekly except for Week 5. Safety assessments were performed at Screening, during treatment and at the end of the study. Subject satisfaction with study medication was assessed at Week 6. Samples of blood were obtained at Weeks 2, 4, and 6 for determination of bifeprunox in plasma. Blood samples were also obtained at Screening/Baseline, Week 3, and Week 6 for clinical laboratory assessments.
Diagnosis and Main Criteria for Inclusion: Male or female subjects 18-75 years of age with schizophrenia (per DSM-IV-TR criteria). Subjects had to have a total score on the PANSS between 70 and 120; at least two of four PANSS items (conceptual disorganization, hallucinatory behavior, suspiciousness, unusual thought content) had to have a score ≧4; and the score on the CGI-S had to be at least 4.

## Cc1cc2c(s1)Nc1ccccc1N=C2N1CCN(C)CC1 [Olanzapine, olanzapine, reference compound]
[1]; Week 1
  Change from Baseline in CDSS Total Score, Median: −1.0
[1]; Week 2
  Change from Baseline in CDSS Total Score, Mean (SD): −1.33 (3.33)
  Change from Baseline in CDSS Total Score, Median: −1.0
[1]; Week 3
  Change from Baseline in CDSS Total Score, Mean (SD): −1.59 (3.43)
  Change from Baseline in CDSS Total Score, Median: −1.0
[1]; Week 4
  Change from Baseline in CDSS Total Score, Mean (SD): −1.49 (3.89)
  Change from Baseline in CDSS Total Score, Median: −1.0
[1]; Week 6, Endpoint
  Change from Baseline in CDSS Total Score, Mean (SD): −1.47 (3.95)
  Change from Baseline in CDSS Total Score, Median: −1.0
[1]; olanzapine 15 mg, ITT
  mean change (SD) from Baseline to Endpoint in CDSS score: −1.47 (3.95)

## Cc1nc2n(c(=O)c1CCN1CCC(c3noc4cc(F)ccc34)CC1)CCCC2 [Risperidone, risperidone, reference compound]
[2]; Week 1
  Change from Baseline in PANSS Negative Symptom Subscale Score, Mean (SD): −1.5 (3.0)
  Change from Baseline in PANSS Negative Symptom Subscale Score, Median: −2
[2]; Week 2
  Change from Baseline in PANSS Negative Symptom Subscale Score, Mean (SD): −2.9 (4.3)
  Change from Baseline in PANSS Negative Symptom Subscale Score, Median: −3
[2]; Week 3
  Change from Baseline in PANSS Negative Symptom Subscale Score, Mean (SD): −3.3 (4.9)
  Change from Baseline in PANSS Negative Symptom Subscale Score, Median: −3
[2]; Week 4
  Change from Baseline in PANSS Negative Symptom Subscale Score, Mean (SD): −3.8 (5.5)
  Change from Baseline in PANSS Negative Symptom Subscale Score, Median: −4
[2]; Week 6/Endpoint
  Change from Baseline in PANSS Negative Symptom Subscale Score, Mean (SD): −3.8 (5.5)
  Change from Baseline in PANSS Negative Symptom Subscale Score, Median: −3
[3]; Endpoint LOCF
  Actual Value of CGI Improvement Score, Mean (S.D.): 3.02 (1.21)
  Actual Value of CGI Improvement Score, Median: 3.0
[3]; Week 1, LOCF
  Actual Value of CGI Improvement Score, Mean (S.D.): 3.43 (0.97)
  Actual Value of CGI Improvement Score, Median: 3.0
[3]; Week 2, LOCF
  Actual Value of CGI Improvement Score, Median: 3.0
[3]; Week 3, LOCF
  Actual Value of CGI Improvement Score, Mean (S.D.): 2.97 (1.05)
  Actual Value of CGI Improvement Score, Median: 3.0
[3]; Week 4, LOCF
  Actual Value of CGI Improvement Score, Mean (S.D.): 3.05 (1.11)
  Actual Value of CGI Improvement Score, Median: 3.0
[4]; Week 1
  Change from Baseline in PANSS Total Score, Mean (SD): −8.7 (10.2)
  Change from Baseline in PANSS Total Score, Median: −9
[4]; Week 2
  Change from Baseline in PANSS Total Score, Mean (SD): −14.8 (14.2)
  Change from Baseline in PANSS Total Score, Median: −15
[4]; Week 3
  Change from Baseline in PANSS Total Score, Median: −18
[4]; Week 4
  Change from Baseline in PANSS Total Score, Mean (SD): −19.2 (17.0)
  Change from Baseline in PANSS Total Score, Median: −20
[4]; Week 6/Endpoint
  Change from Baseline in PANSS Total Score, Mean (SD): −19.7 (19.3)
  Change from Baseline in PANSS Total Score, Median: −21

From patent US20090068290A1, “BIFEPRUNOX DOSES FOR TREATING SCHIZOPHRENIA” (priority 2006, published 2009)
